For one test, the system named is MOLM14 cells. Put plainly: Proliferation assay (spheroid growth, 8 days), MOLM14.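 Further: spheroid size read as confluence by live-cell imaging, compounds added at a range of concentrations with 0.3% DMSO, DMSO-treated wells = 0%, highest reference dose = low control.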 It counts as cell-based, human. The following applies: Homo sapiens, MOLM-14, […], MOLM14, 8 days; read-out: spheroid assay_OneTime MOLM14 IC50.
The subject of the next test is MEIS1 mRNA. In words: MEIS1 mRNA expression assay (Quantigene Singleplex) in MOLM14 cells.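 Further: MEIS1 transcript levels read by probe hybridization and normalized to RPL28 mRNA, with IC50 fitted to fold changes across a rising compound concentration series.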 It counts as cell-based, human. The following applies: Homo sapiens, MOLM-14, 48 h, 48 hours incubation.
The test system of a further test is OCI-AML3 cells. In words: Proliferation assay (spheroid growth, 8 days), OCI-AML3. The test is classed as cell-based, human. The following applies: Homo sapiens, OCI-AML-3, […], OCI-AML3, 8 days. In a few lines:
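IC50 values derive from day-8 spheroid confluence, normalized between DMSO-treated wells and the highest dose of a reference compound, fitted with a variable slope. Cells grew 8 days at 37° C under a compound concentration series in 0.3% DMSO.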

For a further test, the system named is KO-52 cells. Put plainly: Proliferation assay (spheroid growth, 8 days), KO-52 control cell line. The test is classed as cell-based, human. The following applies: Homo sapiens, […], read-out: spheroid assay_OneTime KO-52 IC50. The method, then:
The anti-proliferative effect of menin/MLL protein/protein interaction inhibitor test compounds was assessed in human leukemia cell lines. The cell line MOLM14 harbors a MLL translocation and expresses the MLL fusion protein MLL-AF9, respectively, as well as the wildtype protein from the second allele. OCI-AML3 cells that carry the NPM1c gene mutation were also tested. […] KO-52 was used as a control cell line containing two MLL (KMT2A) wildtype alleles in order to exclude compounds that display general cytotoxic effects.
KO-52 and OCI-AML3 cell lines were propagated in alpha-MEM (Sigma Aldrich) supplemented with 20% heat-inactivated fetal bovine serum (HyClone), 2 mM L-glutamine (Sigma Aldrich) and 50 μg/ml gentamycin (Gibco).
In order to assess the anti-proliferative effects, 200 MOLM14 cells, 200 OCI-AML3 cells or 300 KO-52 cells were seeded in 200 μl media per well in […] round bottom, ultra-low attachment plates (Costar, catalogue number 7007). Cell seeding numbers were chosen based on growth curves to ensure linear growth throughout the experiment. Test compounds were added at different concentrations and the DMSO content was normalized to 0.3%. Cells were incubated for 8 days at 37° C. and 5% CO2. Spheroid like growth was measured in real-time by live-cell imaging (IncuCyteZOOM, Essenbio, 4× objective) acquiring images at day 8. Confluence (%) as a measure of spheroid size was determined using an integrated analysis tool.
In order to determine the effect of the test compounds over time, the confluence in each well as a measure of spheroid size, was calculated. Confluence of the highest dose of a reference compound was used as baseline for the LC (Low control) and the confluence of DMSO treated cells was used as 0% cytotoxicity (High Control, HC).
GraphPad Prism(version 7.00) was used to calculate the IC50. Dose-response equation was used for the plot of % Effect vs Log 10 compound concentration with a variable slope and fixing the maximum to 100% and the minimum to 0%.

The target in test [1] is menin/MLL (terbium chelate-labeled menin, FITC-MBM1 peptide) (Homo sapiens (Human), UniProt O00255). In words: Menin/MLL homogenous time-resolved fluorescence (HTRF) assay.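 Further: IC50 from percent inhibition of HTRF signal, normalized between wells without competitor and wells with a saturating competitor that displaces FITC-MBM1 from His-tagged menin.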 It counts as binding. The following applies: HTRF-30 min incubation IC50, 30 min incubation. On the technique in general: In TR-FRET formats the signal depends on donor and acceptor labels being close together.

This passage reports IC50 results from patent US12473295B2, “Substituted straight chain spiro derivatives” (Janssen Pharmaceutica NV, priority 2019, dated 2025).

Counter-ions that a name gives are not always drawn.

Chain of menin/MLL (terbium chelate-labeled menin, FITC-MBM1 peptide) (O00255 other isoform, or with tags, fused parts or gaps): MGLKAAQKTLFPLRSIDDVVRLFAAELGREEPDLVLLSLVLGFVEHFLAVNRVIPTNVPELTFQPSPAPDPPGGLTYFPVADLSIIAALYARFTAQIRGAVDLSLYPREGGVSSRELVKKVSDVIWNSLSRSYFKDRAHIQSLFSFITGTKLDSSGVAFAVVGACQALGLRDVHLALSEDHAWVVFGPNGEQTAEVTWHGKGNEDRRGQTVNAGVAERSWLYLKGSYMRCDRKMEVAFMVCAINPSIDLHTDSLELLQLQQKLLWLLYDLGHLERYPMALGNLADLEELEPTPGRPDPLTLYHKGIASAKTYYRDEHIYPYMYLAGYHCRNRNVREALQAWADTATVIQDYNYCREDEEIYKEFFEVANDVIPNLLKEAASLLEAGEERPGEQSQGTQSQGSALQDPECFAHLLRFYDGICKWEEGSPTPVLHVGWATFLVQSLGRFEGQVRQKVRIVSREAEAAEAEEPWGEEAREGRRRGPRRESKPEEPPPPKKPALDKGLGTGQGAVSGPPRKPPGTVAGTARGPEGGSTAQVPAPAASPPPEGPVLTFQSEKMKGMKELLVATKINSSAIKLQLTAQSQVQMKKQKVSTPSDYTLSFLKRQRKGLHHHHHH

For orientation: IC50 means the concentration at which inhibition is half-maximal. On to `CC(C)[C@@H](CCCN(C)[C@@H](C)CC(N)=O)N1CC2(CCN(c3ncnnc3Oc3ccc(F)cc3C(=O)N(C(C)C)C(C)C)C2)C1` (single isomer, unassigned) [Compound 201, 2-((5-(2-((*R)-6-(((S)-4-amino-4-oxobutan-2-yl)(methyl)amino)-2-methylhexan-3-yl)-2,6-diazaspiro[3.4]octan-6-yl)-1,2,4-triazin-6-yl)oxy)-5-fluoro-N,N-diisopropylbenzamide fumarate], for which the half-maximal inhibitory concentration (IC50) in the test on MOLM14 cells was 40 nM; in the test on MEIS1 mRNA, 52 nM; in the test with OCI-AML3 cells, 65 nM; in the test with KO-52 cells, more than 15000 nM; in test [1] it was 0.13 nM.

As to `CCN(C(=O)c1cc(F)ccc1Oc1nncnc1N1CCC2(C1)CN([C@H](CCN(C)CCCOC)C(C)C)C2)C(C)C` (single isomer, unassigned) [Compound 275, (*R)—N-ethyl-5-fluoro-N-isopropyl-2-((5-(2-(1-((3-methoxypropyl)(methyl)amino)-4-methylpentan-3-yl)-2,6-diazaspiro[3.4]octan-6-yl)-1,2,4-triazin-6-yl)oxy)benzamide], the 50% inhibitory concentration (IC50) with MOLM14 cells was 78 nM; in the test with MEIS1 mRNA, 100 nM; in the test on OCI-AML3 cells, 330 nM; with KO-52 cells, more than 15000 nM; in test [1], 0.66 nM.

For `CCN(C(=O)c1cc(F)ccc1Oc1nncnc1N1CCC2(C1)CN([C@H](CCCNC[C@@H](O)COC)C(C)C)C2)C(C)C` [Compound 281, N-ethyl-5-fluoro-2-((5-(2-((R)-6-(((R)-2-hydroxy-3-methoxypropyl)amino)-2-methylhexan-3-yl)-2,6-diazaspiro[3.4]octan-6-yl)-1,2,4-triazin-6-yl)oxy)-N-isopropylbenzamide formate], the half-maximal inhibitory concentration (IC50) in the test on MOLM14 cells is 48 nM; in the test on MEIS1 mRNA it was 38 nM; with OCI-AML3 cells it was 90 nM; with KO-52 cells, more than 15000 nM; in test [1], 0.24 nM.

In the case of `CCN(C(=O)c1cc(F)ccc1Oc1nncnc1N1CCC2(C1)CN([C@H](CCCNC[C@H](O)COC)C(C)C)C2)C(C)C` [Compound 284, N-ethyl-5-fluoro-2-((5-(2-((R)-6-(((S)-2-hydroxy-3-methoxypropyl)amino)-2-methylhexan-3-yl)-2,6-diazaspiro[3.4]octan-6-yl)-1,2,4-triazin-6-yl)oxy)-N-isopropylbenzamide formate], the concentration for half-maximal inhibition (IC50) with MOLM14 cells is 23 nM; with MEIS1 mRNA, 50 nM; in the test with OCI-AML3 cells it was 73 nM; in the test with KO-52 cells, more than 15000 nM; in test [1], approximately 0.36 nM.

Turning to `CCN(C(=O)c1cc(F)ccc1Oc1nncnc1N1CCC2(C1)CN([C@H](CCCN(C)CC(CO)OC)C(C)C)C2)C(C)C` (stereo partly drawn) [Compound 170, N-ethyl-5-fluoro-2-((5-(2-((3R)-6-((3-hydroxy-2-methoxypropyl)(methyl)amino)-2-methylhexan-3-yl)-2,6-diazaspiro[3.4]octan-6-yl)-1,2,4-triazin-6-yl)oxy)-N-isopropylbenzamide fumarate], the concentration for half-maximal inhibition (IC50) is 25 nM with MOLM14 cells; 37 nM in the test on MEIS1 mRNA; 41 nM with OCI-AML3 cells; more than 15000 nM with KO-52 cells; 0.1 nM in test [1].

Turning to `CC(C)C(CCCN(C)C)N1CC2(CCN(c3ccnnc3Oc3ccc(F)cc3C(=O)N(C(C)C)C(C)C)C2)C1` (stereo not drawn) [Compound 74, 2-((4-(2-(6-(dimethylamino)-2-methylhexan-3-yl)-2,6-diazaspiro[3.4]octan-6-yl)pyridazin-3-yl)oxy)-5-fluoro-N,N-diisopropylbenzamide], the 50% inhibitory concentration (IC50) was determined as 140 nM in the test with MOLM14 cells; 260 nM in the test with MEIS1 mRNA; 1290 nM in the test on OCI-AML3 cells; 10600 nM in the test on KO-52 cells; 0.51 nM in test [1].

On to `CCNCC[C@H](C(C)C)N1CC2(CCN(c3ncnnc3Oc3ccc(F)cc3C(=O)N(CC)C(C)C)C2)C1` (single isomer, unassigned) [Compound 272, (*R)—N-ethyl-2-((5-(2-(1-(ethylamino)-4-methylpentan-3-yl)-2,6-diazaspiro[3.4]octan-6-yl)-1,2,4-triazin-6-yl)oxy)-5-fluoro-N-isopropylbenzamide formate], for which the IC50 in the test on MOLM14 cells was 130 nM; in the test with MEIS1 mRNA, 170 nM; with OCI-AML3 cells, 440 nM; in the test with KO-52 cells, more than 15000 nM; in test [1], 0.58 nM.

Regarding `CCN(C(=O)c1cc(F)ccc1Oc1nncnc1N1CCC2(C1)CN([C@H](CCNCCCOC)C(C)C)C2)C(C)C` (single isomer, unassigned) [Compound 271, (*R)—N-ethyl-5-fluoro-N-isopropyl-2-((5-(2-(1-((3-methoxypropyl)amino)-4-methylpentan-3-yl)-2,6-diazaspiro[3.4]octan-6-)-1,2,4-triazin-6-yl)oxy)benzamide], the IC50 in the test on MOLM14 cells is 65 nM; in the test on MEIS1 mRNA it was 100 nM; in the test with OCI-AML3 cells it was 160 nM; in the test with KO-52 cells, more than 15000 nM; in test [1] it was 0.27 nM.

As for `CCN(C(=O)c1cc(F)ccc1Oc1nncnc1N1CCC2(C1)CN([C@H](CCCNC(COC)COC)C(C)C)C2)C(C)C` [Compound 159, (R)-2-((5-(2-(6-((1,3-dimethoxypropan-2-yl)amino)-2-methylhexan-3-yl)-2,6-diazaspiro[3.4]octan-6-yl)-1,2,4-triazin-6-yl)oxy)-N-ethyl-5-fluoro-N-isopropylbenzamide fumarate], the half-inhibitory concentration (IC50) in the test on MOLM14 cells is 10 nM; in the test with MEIS1 mRNA, approximately 17 nM; with OCI-AML3 cells, 12 nM; in the test with KO-52 cells it was 6300 nM; in test [1], 0.1 nM.

Consider `CCN(C(=O)c1cc(F)ccc1Oc1nncnc1N1CCC2(C1)CN([C@H](CCC(C)N(C)CCOC)C(C)C)C2)C(C)C` (stereo partly drawn) [Compound 300, N-ethyl-5-fluoro-N-isopropyl-2-((5-(2-((3R)-6-((2-methoxyethyl)(methyl)amino)-2-methylheptan-3-yl)-2,6-diazaspiro[3.4]octan-6-yl)-1,2,4-triazin-6-yl)oxy)benzamide fumarate], for which the concentration for half-maximal inhibition (IC50) in the test on MOLM14 cells was 36 nM; in the test on MEIS1 mRNA, 29 nM; in the test on OCI-AML3 cells, 71 nM; with KO-52 cells, more than 15000 nM; in test [1] it was 0.066 nM.

On to `CCCN(C)C[C@H](O)C[C@H](C(C)C)N1CC2(CCN(c3ncnnc3Oc3ccc(F)cc3C(=O)N(CC)C(C)C)C2)C1` (single isomer, unassigned) [Compound 386, N-ethyl-5-fluoro-2-((5-(2-((3*R,5*R)-5-hydroxy-2-methyl-6-(methyl(propyl)amino)hexan-3-yl)-2,6-diazaspiro[3.4]octan-6-yl)-1,2,4-triazin-6-yl)oxy)-N-isopropylbenzamide fumarate], for which the IC50 in the test with MOLM14 cells was 160 nM; in the test on MEIS1 mRNA, 61 nM; in the test with OCI-AML3 cells it was 810 nM; with KO-52 cells it was 9600 nM; in test [1] it was approximately 0.59 nM.

On to `CCN(C(=O)c1cc(F)ccc1Oc1nncnc1N1CCC2(C1)CN([C@H](CCCN(CCOC)CCOC)C(C)C)C2)C(C)C` [Compound 90, (R)-2-((5-(2-(6-(bis(2-methoxyethyl)amino)-2-methylhexan-3-yl)-2,6-diazaspiro[3.4]octan-6-yl)-1,2,4-triazin-6-yl)oxy)-N-ethyl-5-fluoro-N-isopropylbenzamide formate], for which the IC50 came out at 40 nM in the test with MOLM14 cells, 190 nM with OCI-AML3 cells, 1000 nM in the test with KO-52 cells and 0.16 nM in test [1].

On to `CCN(C(=O)c1cc(F)ccc1Oc1nnccc1N1CCC2(C1)CN([C@@H](CCCN(C)CCOC)C(C)C)C2)C(C)C` (single isomer, unassigned) [Compound 84, (*S)—N-ethyl-5-fluoro-N-isopropyl-2-((4-(2-(6-((2-methoxyethyl)(methyl)amino)-2-methylhexan-3-yl)-2,6-diazaspiro[3.4]octan-6-yl)pyridazin-3-yl)oxy)benzamide oxalate], for which the IC50 was more than 940 nM with MOLM14 cells, more than 1000 nM in the test on MEIS1 mRNA, 7170 nM in the test on OCI-AML3 cells and more than 15000 nM in the test on KO-52 cells.
